pIC50: −log10 of the molar value.
Assays:
[1] = Log D7.4 (1-octanol / HEPES buffer pH 7.4); format: physicochemical; conditions: HEPES buffer pH 7.4 / 1-octanol, mean of triplicate; for logD at 1 h: 1-octanol / HEPES buffer
Description: This solution was diluted to nine known concentration solutions (1200, 800, 400, 120, 80, 40, 12, 8, and 4 μM) in MeCN. Each solution was analyzed by HPLC, and a calibration curve was plotted using the peak areas from the standard concentrations. 20 μL of the 10 mM DMSO stock solution of each compound was partitioned between […] of buffer (200 mM HEPES, 150 mM NaCl, pH 7.4) and […] of 1-octanol. The mixture was mixed for 1 h. Each layer was injected separately onto a Shimadzu LC-20AB HPLC system (Solvent system: gradient from 15% MeCN/85% H2O to 95% MeCN/5% H2O (+0.1% formic acid) over 13 min; Column, Shimadzu C18, […], 50×4.6 mm; UV, 254 nm). The equilibrium solubility in the buffer layer and the 1-octanol layer of test compounds was determined by quantifying the concentration of test solutions against the calibration curve. Experiments were run in triplicate, and results were tabulated and reported as mean. […] Thus, including an electron withdrawing group at position R^4 results in improved pharmacokinetics, such as an improved ability to cross cell membranes.

Kelch domain of KEAP1 = Kelch domain of KEAP1 (Homo sapiens (Human), UniProt Q14145); experiment: Fluorescence anisotropy assay of KEAP1-NRF2 interaction inhibition; format: binding; conditions: for binding affinity (in words): qualitative statement on the fluorescence anisotropy results
Chain of Kelch domain of KEAP1 (Q14145 321-609): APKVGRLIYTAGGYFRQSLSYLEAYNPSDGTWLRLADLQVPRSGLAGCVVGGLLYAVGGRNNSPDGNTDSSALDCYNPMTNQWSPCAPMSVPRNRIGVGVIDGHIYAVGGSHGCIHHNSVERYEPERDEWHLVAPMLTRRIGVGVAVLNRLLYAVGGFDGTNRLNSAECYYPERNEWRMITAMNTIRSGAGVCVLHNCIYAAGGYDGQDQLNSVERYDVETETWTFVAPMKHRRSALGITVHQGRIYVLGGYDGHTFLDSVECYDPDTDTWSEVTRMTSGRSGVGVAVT
Description: The IC50 of the compounds for inhibiting the interaction of a fluorescent NRF2 peptide and the Kelch domain of KEAP1 was determined using fluorescence anisotropy. See Inoyama et al., J. Biomol.
Test compounds' ability to inhibit the KEAP1-NRF2 interaction were assayed using the Kelch domain of KEAP1 and a fluorescein-labeled 9-mer peptide containing the ETGE motif of the Neh2 domain of NRF2. The experiments were performed in triplicate, and sigmoidal concentration-response curves were fitted to the data using Graphpad Prism 6.1 software.

[2] = Microsomal stability study; format: in vitro ADME; conditions: human liver microsomes in buffer, 20 min
Excerpt: LC-MS grade acetonitrile (MeCN), methanol (MeOH), formic acid, and biology grade DMSO were purchased from Fisher Scientific (Pittsburgh, Pa.). LC-MS grade water was generated using a Barnstead Nanopure Diamond water system (Thermo Scientific, Pittsburgh, Pa.). All other reagents, if not specified, were purchased from Sigma-Aldrich (Saint Louis, Mo.). Pooled human liver microsomes and mouse liver microsomes were purchased from Sekisui XenoTech (Kansas City, Kans.). Preparation of Standard. The initial stock solutions of test compounds were prepared in DMSO at 10 mM, and then diluted with MeOH to 200 μM before use. All stock solutions were stored at −20° C. Liver microsomes were aliquoted upon arrival and stored at −80° C. Samples were analyzed on a Shimadzu 8040 triple-quadrupole mass spectrometer (Shimadzu, Addison, Ill.) equipped with electrospray ion source and Shimadzu Nexera XR UHPLC system. Mobile phase A contained water with 0.025% (v/v) FA, and mobile phase B consisted of MeCN with 0.1% (v/v) FA. Five microliters of sample was injected. Study compounds were eluted on a Kinetex C18 column (3.0×50 mm, 2.6 μm; Phenomenex, Torrance, Calif.) at 500 μL/min using a gradient program: mobile phase B started and maintained at 15% for 1 min, then increased to 95% in 4 min. Nebulizing gas flow and drying gas flow were set to 2 and 15 L/min. DL temperature, heat block temperature, and ion spray voltage were maintained at 300° C., 450° C. and 4500 V, respectively.

[3] = tested on: NADPH quinone oxidoreductase (NQO1); experiment: NRF2 target gene activation: NQO1 protein levels by Western Blot in HaCaT keratinocytes; format: cell-based, human; conditions: HaCaT cells, 10 μM compound, 6 h
Description: (§1) Molecules that block the degradatior of NRF2 serve as NRF2 activators. This has the effect of stabilizing NRF2 protein levels and upregulating target gene levels, such as NQO1. […] CDDO is a positive control compound that activates NRF2 through an electrophilic mechanism. […] HaCat Cells were treated with 10 μM compound unless otherwise indicated.
(§2) Spontaneously immortalized human keratinocytes (HaCaT cell line) were grown in Dubecco's modified Eagle's medium (DMEM) with 10% fetal bovine serum and 1% antibiotics. […] Cells were lysed in a 20 mM Tris (pH 7.5) buffer containing 150 mM NaCl, 1 mM EDTA, 1 mM EGTA, 1% Triton X-100, 2.5 mM sodium pyrophosphate, 1 mM Na3VO4, 5 mM β-glycerophosphate, and 1 μg/mL leupeptin. Equal amount of protein (˜40 μg) was separated on a 10% SDS-PAGE, blotted on the membrane, and probed with antiNRF2, or anti-NQO1 antibody. […] CDDO is a positive control compound that activates NRF2 through an electrophilic mechanism.

NRF2 = NRF2 stabilization by Western Blot in HaCaT keratinocytes; format: cell-based, human; conditions: HaCaT cells, 10 μM compound, 6 h, relative to vehicle (DMSO) control
Description: as §1, §2

[4] = fluorescent NRF2 peptide and Kelch domain of KEAP1, fluorescence anisotropy

pIC50 (Kelch domain of KEAP1; [4]) | pIC50 (Kelch domain of KEAP1; Table C, unit inferred) | SMILES | further results
– | – | COc1ccc(S(=O)(=O)N(CC(=O)O)c2cnc(N(CC(=O)O)S(=O)(=O)c3ccc(OC)cc3)c3ccccc23)cc1 [Compound A1, 2,2′-(isoquinoline-1,4-diylbis(((4-methoxyphenyl)sulfonyl)azanediyl))diacetic acid] | logD [1]: −1.5
5.92 | – | COc1ccc(S(=O)(=O)Nc2ncc(N(CC(=O)O)S(=O)(=O)c3ccc(OC)cc3)c3ccccc23)cc1 [Compound A2, N-(1-((4-methoxyphenyl)sulfonamido)isoquinolin-4-yl)-N-((4-methoxyphenyl)sulfonyl)glycine] | logD at 1 h [1]: -0.5
5.70 | – | COc1ccc(S(=O)(=O)N(C)c2ncc(N(CC(=O)O)S(=O)(=O)c3ccc(OC)cc3)c3ccccc23)cc1 [Compound A3, N-(1-((4-methoxy-N-methylphenyl)sulfonamido)isoquinolin-4-yl)-N-((4-methoxyphenyl)sulfonyl)glycine] | metabolic stability [2]: significantly more metabolically stable; logD at 1 h [1]: 0
6.28 | – | O=C(O)CN(c1cnc(N(CC(=O)O)S(=O)(=O)c2ccc(O)cc2)c2ccccc12)S(=O)(=O)c1ccc(O)cc1 [Compound A4, 2,2′-(isoquinoline-1,4-diylbis(((4-hydroxyphenyl)sulfonyl)azanediyl))diacetic acid] | binding affinity (in words) (Kelch domain of KEAP1): high binding affinities
6.46 | – | O=C(O)CN(c1cnc(N(CC(=O)O)S(=O)(=O)c2ccc(F)cc2)c2ccccc12)S(=O)(=O)c1ccc(F)cc1 [Compound A5, 2,2′-(isoquinoline-1,4-diylbis(((4-fluorophenyl)sulfonyl)azanediyl))diacetic acid] | binding affinity (in words) (Kelch domain of KEAP1): high binding affinities
6.67 | – | COc1ccc(S(=O)(=O)Nc2cnc(N(CC(=O)O)S(=O)(=O)c3ccc(OC)cc3)c3ccccc23)cc1 [Compound A6, N-(4-((4-methoxyphenyl)sulfonamido)isoquinolin-1-yl)-N-((4-methoxyphenyl)sulfonyl)glycine] | levels of NQO1 [3]: increase the levels of NQO1; metabolic stability [2]: degraded substantially; stabilization of NRF2 expression (NRF2): stabilize NRF2 expression; logD [1]: −1.6
5.96 | – | COc1ccc(S(=O)(=O)N(C)c2cnc(N(CC(=O)O)S(=O)(=O)c3ccc(OC)cc3)c3ccccc23)cc1 [Compound A8, N-(4-((4-methoxy-N-methylphenyl)sulfonamido)isoquinolin-1-yl)-N-((4-methoxyphenyl)sulfonyl)glycine] | binding affinity (in words) (Kelch domain of KEAP1): significantly diminished the binding affinity; metabolic stability [2]: degraded substantially; logD at 1 h [1]: 0
5.91 | – | [2H]C([2H])([2H])N(c1cnc(N(CC(=O)O)S(=O)(=O)c2ccc(OC)cc2)c2ccccc12)S(=O)(=O)c1ccc(OC)cc1 [Compound A9, N-(4-((4-methoxy-N-(methyl-d3)phenyl)sulfonamido)isoquinolin-1-yl)-N-((4-methoxyphenyl)sulfonyl)glycine] | binding affinity (in words) (Kelch domain of KEAP1): significantly diminished the binding affinity; metabolic stability [2]: degraded substantially
– | – | COc1ccc(S(=O)(=O)N(CC(F)(F)F)c2cnc(N(CC(=O)O)S(=O)(=O)c3ccc(OC)cc3)c3ccccc23)cc1 [Compound B0, N-(4-((4-methoxy-N-(2,2,2-trifluoroethyl)phenyl)sulfonamido)isoquinolin-1-yl)-N-((4-methoxyphenyl)sulfonyl)glycine] | logD at 1 h [1]: 0.5
< 4.60 | < 4.60 | COc1ccc(S(=O)(=O)Nc2cnc(N3CCC[C@@H]3C(=O)O)c3ccccc23)cc1 [Compound C5, (4-((4-methoxyphenyl)sulfonamido)isoquinolin-1-yl)-D-proline] | –
5.30 | 5.30 | COc1ccc(S(=O)(=O)Nc2cnc(N3CCC[C@H]3C(=O)O)c3ccccc23)cc1 [Compound C6, (4-((4-methoxyphenyl)sulfonamido)isoquinolin-1-yl)-L-proline] | –
< 4.60 | < 4.60 | COc1ccc(S(=O)(=O)Nc2cnc(N3CC[C@@H](c4ccccc4)C3)c3ccccc23)cc1 [Compound C7, (S)-4-methoxy-N-(1-(3-phenylpyrrolidin-1-yl)isoquinolin-4-yl)benzenesulfonamide] | –
< 4.60 | < 4.60 | COc1ccc(S(=O)(=O)Nc2cnc(N3CC[C@H](c4ccccc4)C3)c3ccccc23)cc1 [Compound C8, (R)-4-methoxy-N-(1-(3-phenylpyrrolidin-1-yl)isoquinolin-4-yl)benzenesulfonamide] | –
5.03 | 5.03 | COc1ccc(S(=O)(=O)Nc2ccc(/C=C/C(=O)O)c3ccccc23)cc1 [Compound C9, (E)-3-(4-((4-methoxyphenyl)sulfonamido)naphthalen-1-yl)acrylic acid] | –
5.22 | 5.22 | COc1ccc(S(=O)(=O)Nc2ccc(CCC(=O)O)c3ccccc23)cc1 [Compound C11, 3-(4-((4-methoxyphenyl)sulfonamido)naphthalen-1-yl)propanoic acid] | –
< 4.60 | < 4.60 | COc1ccc(CCc2ccc(NS(=O)(=O)c3ccc(OC)cc3)c3ccccc23)cc1 [Compound C13, 4-methoxy-N-(4-(4-methoxyphenethyl)naphthalen-1-yl)benzenesulfonamide] | –
